Data as given in article PMC7719157 (Pharmacology Research & Perspectives, 2020).

Assays:
PPARγ [1] = target: T1, PPARγ (Homo sapiens, UniProt P37231); assay: TR-FRET coactivator; format: biochemical
T1 sequence (P37231 223-505 limits assumed): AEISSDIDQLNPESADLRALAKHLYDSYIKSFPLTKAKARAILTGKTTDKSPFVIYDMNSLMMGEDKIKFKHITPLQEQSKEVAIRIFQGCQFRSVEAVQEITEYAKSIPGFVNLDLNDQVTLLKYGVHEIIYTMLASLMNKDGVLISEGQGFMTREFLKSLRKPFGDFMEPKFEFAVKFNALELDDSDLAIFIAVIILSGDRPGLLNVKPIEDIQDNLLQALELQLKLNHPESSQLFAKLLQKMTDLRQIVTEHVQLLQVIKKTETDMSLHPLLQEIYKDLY

PPARγ [2] = target: T1, PPARγ; assay: [3H]rosiglitazone radioligand displacement; format: binding
PPARα = target: T2, PPARα (Homo sapiens, UniProt Q07869); assay: AlphaScreen coactivator; format: biochemical
T2 sequence (Q07869 196-468 limits assumed): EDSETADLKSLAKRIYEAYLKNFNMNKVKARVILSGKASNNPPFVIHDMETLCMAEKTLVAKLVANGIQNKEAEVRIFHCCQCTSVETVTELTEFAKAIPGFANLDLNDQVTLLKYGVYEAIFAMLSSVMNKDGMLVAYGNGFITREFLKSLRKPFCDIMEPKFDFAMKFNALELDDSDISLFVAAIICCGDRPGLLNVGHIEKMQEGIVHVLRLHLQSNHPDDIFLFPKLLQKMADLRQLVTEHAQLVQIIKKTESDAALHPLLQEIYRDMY

PPARδ = target: T3, PPARδ (Homo sapiens, UniProt Q03181); assay: AlphaScreen coactivator; format: biochemical
T3 sequence (Q03181 171-441 limits assumed): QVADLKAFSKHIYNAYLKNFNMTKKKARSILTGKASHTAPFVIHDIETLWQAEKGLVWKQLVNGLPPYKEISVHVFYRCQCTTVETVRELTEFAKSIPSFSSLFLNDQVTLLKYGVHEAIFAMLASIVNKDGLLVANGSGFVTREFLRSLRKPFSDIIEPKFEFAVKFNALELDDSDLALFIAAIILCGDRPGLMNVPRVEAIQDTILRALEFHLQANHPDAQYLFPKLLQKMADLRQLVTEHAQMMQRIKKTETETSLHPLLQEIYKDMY

Structure (SMILES)	IC50 (PPARγ [1])	Ki (PPARγ [2])	IC50 (PPARα)	IC50 (PPARδ)
O=C(Nc1ccccc1)c1cc([N+](=O)[O-])ccc1Cl [GW9662]	0.00452 µM	–	–	–
CC(C)(C)c1ccc(-c2nc(CBr)nn2-c2cccc(O)c2)cc1 [MM902, 3‐(3‐(bromomethyl)‐5‐(4‐(tert‐butyl) phenyl)‐1H‐1,2,4‐triazol‐1‐yl) phenol]	–	0.14 µM	46 µM	48 µM
